Data set [1] concerns the target CYP2C9 (Homo sapiens (Human), UniProt P11712). Kind of data set: Human Cytochrome P450 Inhibition Assay (Bactosomes). It counts as in vitro ADME. The following applies: recombinant Bactosomes, 10 minutes. The method, then: (§1) The ability of test compounds to inhibit five of the most relevant cytochrome P450 enzymes was measured by determination of the activity of cytochrome P450 enzymes in recombinant cytochrome preparations, called Bactosomes (Cypex Ltd, Dundee, Scotland UK DD2 1 NH), in the presence of a specific probe substrate. Bactosomes are a highly efficient and cost-effective source of recombinant CYP450s which have a higher specific activity of enzyme compared to other sources, such as liver microsomes. […] The following CYP450 isoforms were assayed: CYP1A2, CYP2C9, CYP2C19, CYP2D6 and CYP3A4. The study of CYP450 inhibition potential in Bactosomes is accepted as a valuable model permitting rapid prediction of potential drug-drug interactions in vivo (see, e.g., Weaver et al., 2003).
(§2) Bactosomes were obtained from a commercial source (Cypex, Scotland, UK). Test compounds were incubated with Bactosomes at 6 concentrations. Samples were incubated for 10 minutes, after which the reaction was stopped and the samples analysed by LC-MS/MS Multiple Reaction Monitoring (MRM) for the presence/amount of substrate probe.
(§3) CYP450 enzymes (final protein 75 pmol/mL for CYP1A2; 12.5 pmol/mL for CYP2C19; and 25 pmol/mL for CYP2C9, 2D6 and 3A4), 0.1 M phosphate buffer pH 7.4, probe and test compound (final concentration 50, 15.8, 5, 1.58, 0.5 and 0.158 μM; diluted from 10 mM stock solution to give a final DMSO concentration of 1%) were pre-incubated at 37° C. for 5 minutes. The reaction was initiated by the addition of 20 μL of 10 mM NADPH in phosphate buffer. The final incubation volume was 200 μL. The following control inhibitors were used for each CYP450 inhibition assay: CYP1A2: α-naphthoflavone; CYP2C9: sulfaphenazole; CYP2C19: tranylcypromine; CYP2D6: quinidine; CYP3A4: ketoconazole.
(§4) Each compound was incubated for 10 minutes at 37° C. The reactions were stopped by the addition of methanol (final composition 1:1, aqueous: methanol). The incubation plates were shaken, chilled at […] for 2 hours, and centrifuged at 3500 rpm for 15 minutes at 4° C. to precipitate the protein.

Data set [2] concerns the target CYP2D6 (Homo sapiens (Human), UniProt P10635). Described as above. It is filed as in vitro ADME. The following applies: recombinant Bactosomes, 10 minutes. The method, then: as §1, §2, §3, §4
Data set [3] concerns the target CYP1A2 (Homo sapiens (Human), UniProt P05177). The description is as above. It counts as in vitro ADME. The following applies: recombinant enzyme. The protocol: as §1, §2, §3, §4
Data set [4] deals with CYP3A4 (Homo sapiens (Human), UniProt P08684). The data set is described as above. It counts as in vitro ADME. The following applies: recombinant Bactosomes, 10 minutes. The method, then: as §1, §2, §3, §4
The target of data set [5] is CYP2C19 (Homo sapiens (Human), UniProt P33261). The description is as above. As to conditions: recombinant Bactosomes, 10 minutes. It counts as in vitro ADME. The method, then:
as §1, §2, §3, §4

Data set [6] is described as follows: Rodent Pharmacokinetics Studies. It counts as in vivo, rat. As to conditions: rats. The text has this:
Absorption and metabolic stability were studied using an in vivo pharmacokinetics assay.
[…] Test compounds were formulated in 0.5% carboxymethylcellulose (CMC)/0.1% Tween-80 for administration via the oral route, or in 5% DMSO/10% solutol in saline for administration via the intravenous route. For compound HMC-C-01-A the oral administration was formulated in 2% dimethylacetamide/20% hydroxypropyl-β-cyclodextrin in water. Animals were given free access to food throughout the study except for fasting overnight and until 2 hours post dose on the day of dosing.
Blood samples were taken from the retro-orbital plexus at the following time points and placed in microtubes containing 20% K2EDTA solution:
Oral Dosing: predose; 0.25, 0.5, 1, 2, 4, 6, 8, 12 and 24 hours post dose.
Blood samples were centrifuged to obtain plasma, which was transferred to a separate container and frozen at −20° C.
For analysis, samples were thawed at room temperature and prepared by protein precipitation with acetonitrile spiked with internal standard (500 ng/mL glipizide) in the ratio 1:4 with plasma.
The pharmacokinetic parameters for the test compounds were calculated by Phoenix WinNonlin version 8.0 (Certara, CA) using standard non-compartmental methods. Peak plasma concentrations (Cmax) and time of the peak plasma concentration (Tmax) were the observed values. The area under the plasma concentration-time curve (AUC) was determined by use of the linear trapezoidal rule up to the last measurable concentration (AUClast) and thereafter by extrapolation of the terminal elimination phase to infinity (AUCinf). The elimination phase half-life (t1/2) was calculated as 0.693/kel.

Data set [7] is described as follows: Aqueous solubility in FaSSIF. It is filed as physicochemical. The protocol: Aqueous solubility was measured by equilibration of compounds with fasted state simulated intestinal fluid (FaSSIF) and quantified spectrophotometrically.
Preparation of blank FaSSIF: 0.21 g of sodium hydroxide (NaOH) pellets, 1.97 g of dihydrogen sodium phosphate (NaH2PO4.2H2O) and 3.09 g of sodium chloride (NaCl) were dissolved in 400 mL of deionised water. The pH was adjusted to 6.5 using 1 M hydrochloric acid and further deionised water added to a final volume of 500 mL.
Preparation of FaSSIF: 0.056 g of SIF Powder (containing sodium taurocholate and lecithin) (Pharses A G) was dissolved in 25 mL of blank FaSSIF and stirred until the powder was completely dissolved. The solution was allowed to stand for 2 hours during which it became opalescent; it was used within 24 hours. The final solution composition was characterised as follows: • Sodium taurocholate: 3 mM • Lecithin: 0.75 mM • Osmolarity: 270±10 mOsmol • pH: 6.5
The optical density was measured at the end of the incubation period for test compounds and a reference used to determine solubility. In brief, two samples were prepared for each determination: a reference sample consisting of a stock solution of test compound in DMSO diluted in system solution (a phosphate free, low absorption buffer) and propanol; and a test sample (prepared in triplicate) consisting of 0.5 mL FaSSIF spiked with test compound at 0.2 mM. Each sample was incubated at room temperature for 16 hours with constant shaking at 250 rpm. At the end of the incubation period, 0.3 mL of each sample was filtered through a pION filter plate (PION, Woburn MA), diluted 1:1 with propanol and scanned using UV spectrophotometry at Amax ([…]) using a Spectra Max Plus—Version 2.1000 (Molecular Devices, Sunnyvale, CA), with pSOL Explorer solubility determination software (pION, Woburn, MA).
FaSSIF solubility was calculated using the following formula:
[formula] • wherein: • “OD” is the optical density; • “Cr” is the concentration of the reference (33.4 μM); and • “molecular weight” is for the test compound (e.g., 381.44 for ABD735).

Data set [8] deals with hERG (Homo sapiens (Human), UniProt Q12809). Kind of data set: hERG Ion Channel binding assay (3H astemizole displacement). As to conditions: human, membranes of HEK293 cells stably expressing hERG, pH 7.4, probe 3H astemizole (1.5 nM); 30 μM; displacement of 3H astemizole, hERG-HEK293 membranes. The protocol: (§5) The activity of the compounds against the hERG ion channel was tested using a binding assay in stably transfected Human Embryonic Kidney cells (hERG-HEK293). hERG-HEK293 cells were cultured in MEM medium (Invitrogen)+10% FBS, glutamine and non-essential amino acids at 37° C. To prepare membranes, cells were homogenised on ice, centrifuged at 650×g for 10 minutes at +4° C., and the resulting supernatant centrifuged at 48000×g for 10 minutes at +4° C. The pellet was resuspended in ice-cold 50 mM Tris-HCl buffer, 5 mM KCl (pH 8.5) and stored frozen in aliquots until use.
(§6) For binding assays, membranes were thawed, re-suspended in assay buffer (10 mM HEPES pH 7.4, 0.1% BSA, 5 mM potassium chloride, 0.8 mM magnesium chloride, 130 mM sodium chloride, 1 mM sodium-EGTA, 10 mM glucose) and incubated with ^3H astemizole (1.5 nM), and with or without test compound at 25° C. for 60 minutes. Binding was determined following filtration of the membranes and washing in Tris-HCl buffer by scintillation counting of ^3H astemizole.
(§7) The degree of binding of compounds to the hERG ion channel (%) was obtained by measuring the binding of ^3H astemizole and its displacement by test compound. A value of 0% indicates no binding and a value of 100% indicates complete displacement of the radiolabelled ligand.

In data set [9] the target is hERG ion channel (Homo sapiens (Human), UniProt Q12809). Described as above. The protocol: as §5, §6, §7
Data set [10] relates to Thp1 human monocytic cells. Kind of data set: Thp1 Monocyte ATP Production Assay (ATPlite). It is filed as cell-based. As to conditions: Homo sapiens, THP-1; Thp1 cells, 24 hour incubation; 9-point concentration range from 10 μM to 10 nM; mean of 2 independent experiments. The protocol: In vitro potency of test compounds was determined by incubation with Thp1 human monocytic cells and subsequent determination of Adenosine TriPhosphate (ATP) levels using firefly luciferase.
ATP is present in all metabolically active cells. When cells lose integrity, their ability to synthesise ATP is rapidly lost. […] See, e.g., Kang et al., 2015; Jiang et al., 2013. Levels of ATP can be monitored using a system based on firefly (Photinus pyralis) luciferase (see, e.g., Auld et al., 2009) using commercially available kits. A system known as ATPlite™ was using to measure effects of the test compounds on cellular viability in vitro. This one-step assay system is an adenosine triphosphate (ATP) monitoring system based on the production of light caused by the reaction of ATP from the cells with added luciferase and D-luciferin, as illustrated in the reaction scheme below:
Thp1 cells were plated at 112500 cells per well in 125 μL RPMI-1640 (no glucose) with 1% FBS in 96-well plates. Test compounds were prepared as 100 mM solutions in DMSO. These stock solutions were diluted in DMSO and then diluted 1000× in culture medium (RPMI) before being added directly to the wells so as to give the desired final compound concentration. After a 24 hour incubation at 37° C./5% CO2, ATPLite™ (Perkin Elmer) was added to each well (1:10 v/v, 10 μL). The plate was then incubated at room temperature for 5 minutes and the emitted light was quantified on Viewlux with a measurement time of 0.3 seconds and binning 4×4.
The average results for each test compound were expressed as a percent (%) of the average control value reflecting cell viability. The average values across the concentrations tested were then plotted and the IC50 for was calculated by fitting the data to a 4-parameter IC50 equation using software from Graf it (Erithacus Software). Each experiment was repeated twice and the data are presented as the mean IC50 from both experiments.
On the technique in general: In ATP-based viability assays light output follows the ATP content of the culture.

This is an account of results in patent publication US12162836B2, “N-acyl-{4-[(4-aryl-phenyl)sulfonylmethyl]piperidine} compounds and their therapeutic use” (Modern Biosciences Limited, priority 2019, dated 2024).

Structures are written as SMILES. ≈ marks a conversion by molar mass, not a printed value.

CYP1A2, sequence (P05177 whole entry): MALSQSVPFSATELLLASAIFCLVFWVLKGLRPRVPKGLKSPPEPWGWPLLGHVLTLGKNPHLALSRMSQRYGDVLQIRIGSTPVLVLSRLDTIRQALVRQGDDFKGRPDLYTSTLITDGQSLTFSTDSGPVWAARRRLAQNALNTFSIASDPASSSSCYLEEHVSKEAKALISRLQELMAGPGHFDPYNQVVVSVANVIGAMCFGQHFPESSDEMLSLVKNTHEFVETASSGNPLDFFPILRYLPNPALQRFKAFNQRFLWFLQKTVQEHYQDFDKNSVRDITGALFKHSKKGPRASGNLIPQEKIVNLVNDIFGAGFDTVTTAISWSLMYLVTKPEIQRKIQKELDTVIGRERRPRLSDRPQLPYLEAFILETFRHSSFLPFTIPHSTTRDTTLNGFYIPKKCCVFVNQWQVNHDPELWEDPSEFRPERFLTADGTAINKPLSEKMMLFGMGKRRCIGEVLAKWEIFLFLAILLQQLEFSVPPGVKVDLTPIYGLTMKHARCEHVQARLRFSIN
CYP2C9, sequence (P11712 whole entry, canonical isoform): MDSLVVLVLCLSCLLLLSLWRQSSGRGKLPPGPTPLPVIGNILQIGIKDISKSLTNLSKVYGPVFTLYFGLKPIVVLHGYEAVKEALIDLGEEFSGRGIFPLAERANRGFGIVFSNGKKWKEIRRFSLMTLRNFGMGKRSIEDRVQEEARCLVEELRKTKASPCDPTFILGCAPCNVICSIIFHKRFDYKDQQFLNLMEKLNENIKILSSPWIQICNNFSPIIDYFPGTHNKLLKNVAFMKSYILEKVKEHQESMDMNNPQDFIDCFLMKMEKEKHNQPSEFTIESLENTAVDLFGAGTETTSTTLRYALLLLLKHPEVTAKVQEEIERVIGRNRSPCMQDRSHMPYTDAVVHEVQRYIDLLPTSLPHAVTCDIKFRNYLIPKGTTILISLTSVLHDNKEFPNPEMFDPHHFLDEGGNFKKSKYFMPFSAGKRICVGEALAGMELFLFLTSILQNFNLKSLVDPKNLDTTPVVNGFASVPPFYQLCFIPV
CYP3A4, sequence (P08684 whole entry): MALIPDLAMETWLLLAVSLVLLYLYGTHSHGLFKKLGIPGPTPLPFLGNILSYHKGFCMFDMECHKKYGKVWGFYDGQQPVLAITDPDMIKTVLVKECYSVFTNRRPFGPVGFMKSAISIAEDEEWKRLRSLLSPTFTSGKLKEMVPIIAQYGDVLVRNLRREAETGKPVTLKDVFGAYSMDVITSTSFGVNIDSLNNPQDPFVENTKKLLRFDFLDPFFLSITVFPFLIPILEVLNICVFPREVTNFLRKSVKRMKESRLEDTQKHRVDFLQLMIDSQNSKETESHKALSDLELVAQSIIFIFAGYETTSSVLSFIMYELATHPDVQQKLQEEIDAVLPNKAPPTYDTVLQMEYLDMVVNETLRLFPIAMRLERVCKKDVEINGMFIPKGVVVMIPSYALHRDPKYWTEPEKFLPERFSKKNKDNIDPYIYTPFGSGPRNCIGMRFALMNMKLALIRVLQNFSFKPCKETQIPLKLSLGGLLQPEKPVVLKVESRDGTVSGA
CYP2D6, sequence (P10635 whole entry): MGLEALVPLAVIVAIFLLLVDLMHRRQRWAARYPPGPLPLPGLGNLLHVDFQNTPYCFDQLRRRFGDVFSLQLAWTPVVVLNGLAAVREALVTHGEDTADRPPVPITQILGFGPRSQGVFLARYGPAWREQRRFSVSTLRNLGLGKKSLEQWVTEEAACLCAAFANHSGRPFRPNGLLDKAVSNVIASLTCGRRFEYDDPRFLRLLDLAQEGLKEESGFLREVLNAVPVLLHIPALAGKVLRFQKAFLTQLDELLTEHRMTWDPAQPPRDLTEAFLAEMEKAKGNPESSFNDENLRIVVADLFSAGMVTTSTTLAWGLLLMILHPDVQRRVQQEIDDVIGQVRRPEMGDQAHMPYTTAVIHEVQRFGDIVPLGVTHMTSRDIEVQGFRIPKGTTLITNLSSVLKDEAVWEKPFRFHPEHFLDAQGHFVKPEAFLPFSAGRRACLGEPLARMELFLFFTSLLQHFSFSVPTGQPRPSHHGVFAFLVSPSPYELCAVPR
CYP2C19, sequence (P33261 whole entry): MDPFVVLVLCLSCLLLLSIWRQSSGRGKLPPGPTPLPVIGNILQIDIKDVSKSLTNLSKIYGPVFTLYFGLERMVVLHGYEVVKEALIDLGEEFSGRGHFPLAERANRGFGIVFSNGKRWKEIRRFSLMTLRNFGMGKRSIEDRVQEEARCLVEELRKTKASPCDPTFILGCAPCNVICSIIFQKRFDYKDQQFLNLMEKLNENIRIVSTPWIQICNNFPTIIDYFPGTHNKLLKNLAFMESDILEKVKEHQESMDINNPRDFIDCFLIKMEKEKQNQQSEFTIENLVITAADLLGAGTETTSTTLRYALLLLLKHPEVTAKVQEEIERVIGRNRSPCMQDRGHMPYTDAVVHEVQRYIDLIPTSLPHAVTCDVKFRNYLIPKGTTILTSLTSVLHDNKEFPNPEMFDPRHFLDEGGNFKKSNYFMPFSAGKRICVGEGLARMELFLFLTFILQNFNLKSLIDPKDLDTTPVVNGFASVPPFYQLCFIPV
hERG, sequence (Q12809 whole entry): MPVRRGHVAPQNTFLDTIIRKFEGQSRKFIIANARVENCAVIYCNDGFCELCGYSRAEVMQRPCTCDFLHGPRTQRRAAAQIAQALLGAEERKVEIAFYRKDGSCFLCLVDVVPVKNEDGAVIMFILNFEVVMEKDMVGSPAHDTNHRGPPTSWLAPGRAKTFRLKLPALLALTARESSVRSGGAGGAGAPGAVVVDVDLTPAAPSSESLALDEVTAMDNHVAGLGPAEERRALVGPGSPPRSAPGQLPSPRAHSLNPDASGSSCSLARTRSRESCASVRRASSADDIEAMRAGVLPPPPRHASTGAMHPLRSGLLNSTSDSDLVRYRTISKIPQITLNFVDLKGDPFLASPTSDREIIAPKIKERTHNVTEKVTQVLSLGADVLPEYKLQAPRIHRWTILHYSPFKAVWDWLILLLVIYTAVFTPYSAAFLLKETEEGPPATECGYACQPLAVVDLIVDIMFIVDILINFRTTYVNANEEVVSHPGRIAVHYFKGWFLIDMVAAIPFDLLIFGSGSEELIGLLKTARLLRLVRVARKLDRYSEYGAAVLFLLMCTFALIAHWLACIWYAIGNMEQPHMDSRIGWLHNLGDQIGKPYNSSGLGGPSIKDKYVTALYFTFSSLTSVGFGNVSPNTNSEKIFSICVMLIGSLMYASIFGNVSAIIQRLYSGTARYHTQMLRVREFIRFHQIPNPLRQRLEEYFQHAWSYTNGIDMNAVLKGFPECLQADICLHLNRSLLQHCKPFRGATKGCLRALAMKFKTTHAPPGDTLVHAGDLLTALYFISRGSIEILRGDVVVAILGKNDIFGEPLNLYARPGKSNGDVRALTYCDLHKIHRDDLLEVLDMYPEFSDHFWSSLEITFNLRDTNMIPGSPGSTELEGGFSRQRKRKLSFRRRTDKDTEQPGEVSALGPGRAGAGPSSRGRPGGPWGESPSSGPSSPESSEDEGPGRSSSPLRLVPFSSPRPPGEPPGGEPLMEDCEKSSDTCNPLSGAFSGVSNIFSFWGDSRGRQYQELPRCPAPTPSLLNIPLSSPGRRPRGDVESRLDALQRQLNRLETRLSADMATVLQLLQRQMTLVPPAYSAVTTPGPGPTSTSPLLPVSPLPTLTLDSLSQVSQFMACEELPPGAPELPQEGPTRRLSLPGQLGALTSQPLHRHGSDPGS
hERG ion channel, sequence (Q12809 whole entry): as above

A word on the IC50: it is the concentration needed to halve the response being measured. For the compound `CC1(O)CCC(NS(=O)(=O)c2ccc(-c3ccc(C#N)cc3Cl)cc2)CC1` (centres unmarked) [HMC-C-09-A, reference compound], the IC50 in data set [1] was 34 µM; in data set [2] it was more than 50 µM; in [3], 23 µM; in [4] it was 33 µM; in data set [5], more than 50 µM.
For `CC1(O)CCC(NS(=O)(=O)c2ccc(-c3cc(F)c(F)cc3F)cc2)CC1` (centres unmarked) [HMC-C-10-B, reference compound], the 50% inhibitory concentration (IC50) was 2.4 µM in data set [1]; more than 16 µM in data set [2]; more than 16 µM in data set [3]; 9.2 µM in [4]; 8.5 µM in data set [5].
Turning to `CC1(O)CCC(NS(=O)(=O)c2ccc(-c3ccc(Cl)cc3C#N)c(Cl)c2)CC1` (centres unmarked) [HMC-C-11-A, reference compound], the IC50 in [1] worked out at 2.7 µM; in [2], 9.3 µM; in [3], 11 µM; in data set [4], 12 µM; in data set [5], 5.1 µM.
As to `CC1(O)CCC(NS(=O)(=O)c2ccc(-c3ncc(Cl)cc3C#N)cc2)CC1` (centres unmarked) [HMC-N-05-A, reference compound], the IC50 in [1] is 27 µM; in data set [2], more than 50 µM; in [3] it was 36 µM; in [4], more than 50 µM; in [5], more than 50 µM. For the same compound, in [6] (5% DMSO/10% solutol in saline both routes (footnote 1)), the T1/2 was determined as 48 min. The “Bioavail, F” value in data set [6] (5% DMSO/10% solutol in saline for both oral and intravenous routes (footnote 1)) came out at 88%. The “i.v. AUC” value in [6] (intravenous, 5% DMSO/10% solutol in saline (footnote 1)) worked out at 891 ng/mL/min. In [6] (oral, 5% DMSO/10% solutol in saline (footnote 1)), the “p.o. AUC” value is recorded as 3937 ng/mL/min.
A word on the solubility: it is the concentration that dissolves in the medium under given conditions. The term inhibition denotes the percentage by which the read-out fell short of the control. The low end stands for little suppression, the high end for strong suppression. `CC(=O)N1CCC(C(C)S(=O)(=O)c2ccc(-c3ccc(F)cc3F)cc2)CC1` (centres unmarked) [NASMP-17, 1-(4-(1-((2′,4′-Difluoro-[1,1′-biphenyl]-4-yl)sulfonyl)ethyl)piperidin-1-yl)ethan-1-one]: the “solubility (in words)” value in data set [7] was “particularly good solubility”. In data set [7] (kinetic from dmso stock, pH 6.5, 16 hours, room temperature), the solubility at 16 h came to 77 µg/mL (≈ 189 µM). The inhibition at 60 min, 30 µM in [8] came out at 14%. The “cardiac safety profile, hERG (in words)” value in data set [9] is recorded as “particularly positive profile”. Moreover, in data set [10], the IC50 was 4.6 µM.
